Measured values: patent US11672766B2, “Therapeutic cationic peptides and unimolecular nanoparticles for efficient delivery thereof” (Wisconsin Alumni Research Foundation, priority 2017, dated 2023)
Where no end group is shown, it is not given here. [ ]: non-standard residue; d: D form. Arg(Me2a) = CN(C)C(=N)NCCC[C@H](N)C(=O)O

Tests used:
[1] = tested on: MCF7 PKM2mut/shPKM1, MDA-MB-231 PKM2mut/shPKM1, MCF7 CARM1 KO cells; assay: MTT cell growth in ROS highly producing cells; format: cell-based; conditions: PKM2 KO, PKM2 KO expressing PKM2mut and CARM1 KO cells
Experimental: (§1) For quantitative proliferation assays, 1000 cells per well were seeded onto 96-well plates. 3-(4,5-dimethylthiazol-2-yl)-2,5-diphenyltetrazolium bromide (MTT) solution (20 μL per well, 4 mg/mL) was added into the wells and incubated 4 hours. After discarding the supernatant, 200 μL DMSO was added and the absorbance value (optical density) was measured at 490 nm on a Victor X5 microplate reader (Perkin Elmer, Waltham, Mass.). In the next 3 days, the absorbance value was measured every day. For 5-Ethynyl-2′-deoxyuridine (EdU) incorporation assay, 3×10^5 cells were seeded into 6-well plate and incubated 10 μM EdU for 1 hour, followed by the procedures described in the Click-iT® EdU cytometry assay kit according to the manufacturer's instructions. Cells were then analyzed on BD LSRII. For clonogenicity assay, 1000 viable transfected cells were placed in six-well plates and maintained in complete medium for 2 weeks. Colonies were washed with PBS and fixed with 3.7% formaldehyde for 15 min at room temperature, and then stained for 20 min with 0.05% crystal violet.

[2] = tested on: MDA-MB-231 PKM2mut/shPKM1 cells; assay: Cell migration of ROS highly producing cells; format: cell-based, human
Experimental: (§2) Cell migration assay was performed as previously described (Wang et al., 2014) using 8.0 μm pore size Transwell inserts (Costar Corp., Cambridge, Mass.). Briefly, 1×10^5 cells in 100 μL serum free media were added into the upper chamber, 500 μL culture media with 20% FBS was in the lower well. After 12 hours culture, removed the cells on the upper surface of the membrane and fixed the migrant cells attached to the lower surface with 3.7% formaldehyde in culture media at 37° C. for 15 min, and then stained for 20 min with 0.05% crystal violet.

[3] = tested on: MCF7 cells (parental, PKM2 KO, PKM2wt/shPKM1, PKM2mut/shPKM1); assay: Cell death by PI staining after IP3Rs inhibition; format: cell-based; conditions: MCF7 lines, 3.5 μM XeB, 24 hours
Experimental: (§3) Cell apoptosis and death assays were based on the previously described method. See Cardenas, C., et al., “Selective Vulnerability of Cancer Cells by Inhibition of Ca(2+) Transfer from Endoplasmic Reticulum to Mitochondria,” Cell Rep 14, 2313-2324 (2016). Briefly, cell apoptosis was determined by annexin V/APC and propidium iodide (PI) staining. Cell death was determined by PI staining using flow cytometry.

[4] = tested on: MDA-MB-231 cells (parental, PKM2 KO, PKM2wt/shPKM1, PKM2mut/shPKM1); assay: Cell death by PI staining after IP3Rs inhibition; format: cell-based, human; conditions: MDA-MB-231 lines, 5 μM XeB, 24 hours
Experimental: as §3

MCF7 cells [5] = assay: MTT cell proliferation assay; format: cell-based; conditions: peptides delivered by UMNP (FIG. 14E)
Experimental: as §1

[6] = target: T1, CARM1-mediated methylation of PKM2 (Homo sapiens, UniProt Q86X55); assay: In vitro methylation assay of PKM2 by CARM1 (3H-SAM, autoradiography); format: biochemical; conditions: for CARM1-mediated methylation of PKM2: free peptide or peptide encapsulated in UMNP; for PKM2 methylation by CARM1: FBP 100 μM or TEPP-46 1 μM
T1 construct: HaloTag (cleaved yes); made in house; host or cells: CARM1: HEK293T (transient)
T1 sequence (Q86X55 1-608): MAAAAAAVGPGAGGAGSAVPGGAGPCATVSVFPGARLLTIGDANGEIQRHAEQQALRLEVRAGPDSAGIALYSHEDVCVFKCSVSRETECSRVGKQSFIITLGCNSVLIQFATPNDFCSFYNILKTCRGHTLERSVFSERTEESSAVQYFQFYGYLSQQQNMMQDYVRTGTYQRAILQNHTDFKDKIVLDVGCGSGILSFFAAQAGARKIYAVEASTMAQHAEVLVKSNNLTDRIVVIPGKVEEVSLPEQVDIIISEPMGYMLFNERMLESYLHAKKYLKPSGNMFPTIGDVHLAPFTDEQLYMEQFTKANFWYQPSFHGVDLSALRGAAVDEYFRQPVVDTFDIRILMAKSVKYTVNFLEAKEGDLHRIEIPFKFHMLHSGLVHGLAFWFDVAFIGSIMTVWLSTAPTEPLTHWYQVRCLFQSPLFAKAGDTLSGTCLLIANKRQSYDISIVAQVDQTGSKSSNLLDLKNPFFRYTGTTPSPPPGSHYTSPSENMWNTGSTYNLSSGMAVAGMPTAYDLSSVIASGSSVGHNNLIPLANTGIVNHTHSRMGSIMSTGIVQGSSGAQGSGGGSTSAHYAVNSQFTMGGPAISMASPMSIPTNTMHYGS
Experimental: (§4) In vitro methylation assay was performed as previously described (Wang et al., 2014). Purified histones or purified substrate proteins were mixed with the protein arginine methyltransferases (PRMTs) in the presence of ^3H-SAM. [^3H]-labeled substrates were resolved by SDS-PAGE and detected by autoradiography.
Human PRMT1-8 cDNAs were cloned into pFN21K HaloTag CMV Flexi Vector (Promega) (Wang et al., 2014). These plasmids were transiently transfected into HEK293T cells for 36 hours. The cells were harvested in binding buffer (HEPES 50 mM, NaCl 150 mM, NP40 0.005%, 0.5 mM EDTA, pH 7.5) and sonicated at 35% power (amplitude) with 10 s on, 30 s off, 4-6 cycles on ice, and then centrifuged and collected the supernatant. The supernatant was incubated with HaloLink resin (Promega) overnight at 4° C. The beads were washed with binding buffer twice and then incubated with 1M urea in binding buffer for 20 min at room temperature. After washing the beads with binding buffer twice, the proteins were eluted with 20 μg/mL TEV in cleavage buffer (DTT 1 mM in binding buffer). For purification of Flag-tagged proteins, the plasmids were transiently transfected into HEK293T cells for 36 hours. The cells were harvested in lysis buffer on ice for 30 min, and then centrifuged and collected the supernatant. Flag M2 Affinity Gel was added into the supernatant and incubated for 2 hours, and then the Gel was washed with PBS four times. The proteins were eluted by 150 μg/mL 3× Flag peptide in 0.5 M Tris HCl and 1M NaCl pH 7.5. For His-tagged or GST-tagged proteins purification, PKM1 and PKM2 cDNA were inserted pET-21a (+) or pGEX-2T plasmid. The plasmids were then transfected into E. coli BL-21 competent cells. Protein expression was induced by the presence of 0.5 mM IPTG overnight at 20° C. After centrifugation, pellet was resuspended in sonication buffer (1% Triton X-100, 1 mM EDTA, 1 mM DTT in PBS) and sonicated at 50% power (amplitude) with 30 s on, 30 s off, 10 cycles on ice or until the suspension became clear. After centrifugation, the supernatant was incubated with Ni-NTA Agarose or Glutathione Agarose Resin for 2 hours at room temperature. For His-tagged proteins, Beads were washed with PBS twice, then washed with 10 mM imidazole in elution buffer (1% Triton X-100, 0.1% glycerol in PBS) once. The His-tagged proteins were eluted with 250 mM imidazole. For GST-tagged proteins, beads were washed with PBS four times and eluted with glutathione elution buffer (50 mM Glutathione, 50 mM Tris HCl, pH 8.0, 100 mM NaCl, and 1 mM EDTA). The eluted proteins were dialyzed with PBS containing 0.1% glycerol.

MDA-MB-231 cells [7] = assay: Transwell cell migration assay; format: cell-based, human; conditions: peptides delivered by UMNP (FIG. 14F)
Experimental: as §2

[8] = target: T2, histone H3 methylation by CARM1 (Homo sapiens, UniProt Q86X55); assay: In vitro methylation assay of control substrate histone H3 by CARM1; format: biochemical; conditions: FBP 100 μM or TEPP-46 1 μM
T2 construct: HaloTag (cleaved yes); made in house; host or cells: HEK293T (transient transfection)
T2 sequence (Q86X55 1-608): T1 sequence (Q86X55 1-608)
Experimental: as §4

MCF7 cells [9] = assay: Oxygen consumption rate (OCR), Seahorse XF96; format: cell-based; conditions: TEPP-46 vs DMSO, DCA treated
Experimental: (§5) The OCR was measured in an XF96 extracellular analyzer (Seahorse Bioscience). 2×10^4 cells per well were seeded into the 96-well plate and incubated in DMEM media with 10% FBS at 37° C. overnight. Next day, the media was changed to analysis media containing 10 mM glucose. The cells were incubated in a CO2-free incubator at 37° C. for 1 hour. Cells were sequentially exposed to oligomycin ([…] FCCP (0.5 μM) and rotenone (0.5 μM). Each point in traces represent the average of measurement from six different wells.

methyl-PKM2 = assay: Western blot analysis of methyl-PKM2 in MCF7 cells; format: cell-based; conditions: TEPP-46 vs DMSO
Experimental: Methyl-PKM2 specific anti-peptide antibody was prepared by Genemed Synthesis Inc., TX, using standard methods of peptide synthesis. The KLH-conjugated PKM2 peptide RYR(as)PR(as)[…] (SEQ ID NO: 58), with R445 and R447 asymmetrically dimethylated was synthesized. The peptide corresponding to human PKM2 amino acids 443-454, was used to immunize rabbits. To purify the di-me-PKM2 specific antibody, 10 mg dimethyl peptide (column A) and 10 mg control peptide (non-methyl) (column B) were coupled separately to cyanogen bromide activated agarose beads. 100 ml of antisera was then incubated with the peptide-agarose column A. The unbound antiserum was washed with 1×PBS buffer. After several washes, the antibody was eluted with 0.1 M glycine, pH 2.5; neutralized with 1M […] Tris, pH 8.0. The antibody was stabilized with 0.1% BSA [Elution A]. Elution A was then incubated with column B and then same procedure was followed for elution. The flow through from column B was the dimethyl-specific antibody (methyl-PKM2). The antisera and purified antibody were then tested by enzyme-linked immunosorbent assay (ELISA).

MCF7 cells [10] = assay: Lactate production normalized to cell numbers; format: cell-based; conditions: TEPP-46 vs DMSO, DCA treated
MDA-MB-231 cells [11] = assay: Oxygen consumption rate (OCR), Seahorse XF96; format: cell-based, human; conditions: TEPP-46 vs DMSO, DCA treated
Experimental: as §5

MDA-MB-231 cells [12] = assay: Lactate production normalized to cell numbers; format: cell-based, human; conditions: TEPP-46 vs DMSO, DCA treated
IP3R3 = assay: Western blot analysis of IP3R3 protein levels in MCF7 cells; format: cell-based; conditions: parental MCF7, TEPP-46 vs DMSO

| PKM2 methylation by CARM1 [6] | Molecule | proliferation of MCF7 cells (MTT) (MCF7 cells [5]) | CARM1-mediated methylation of PKM2 [6] | migration of MDA-MB-231 cells (transwell) (MDA-MB-231 cells [7]) | histone H3 methylation by CARM1 [8] | further results |
| --- | --- | --- | --- | --- | --- | --- |
| – | CC1(C)CC(NC(=O)C[P+](c2ccccc2)(c2ccccc2)c2ccccc2)CC(C)(C)N1[O] [mitTEMPO] | – | – | – | – | cell proliferation [1]: did not alter cell proliferation and migration; cell migration [2]: did not alter cell proliferation and migration |
| – | C[C@@H]1CN2CCC[C@H]3CCCCCC[C@H]4CCN5CCC[C@@](O)(CCCCCC[C@@H]1O[C@H]32)[C@H]5O4 [XeB, Xestospongin B] | – | – | – | – | cell death (vulnerability to IP3Rs inhibition) [3]: PKM2 KO or PKM2^mut cells are more vulnerable to XeB than parental and PKM2^wt cells; cell death (vulnerability to IP3Rs inhibition) [4]: PKM2 KO or PKM2^mut cells are more vulnerable to XeB than parental and PKM2^wt cells |
| – | methyl-peptide: negative control: corresponding peptide with R445 and R447 asymmetrically di-methylated (RY[Arg(Me2a)]P[Arg(Me2a)]APIIAVT; also: R445 and R447 asymmetrically di-methylated) | but not methyl-peptide, inhibited proliferation of the MCF7 cells | but not the control methyl-peptide, abrogated CARM1-mediated methylation of PKM2 | but not methyl-peptide, inhibited proliferation of the MCF7 cells (FIG. 14E) and migration of MDA-MB-231 cells | – | – |
| blockage of PKM2 methylation by CARM1 | O=P(O)(O)OC[C@H]1O[C@](O)(COP(=O)(O)O)[C@@H](O)[C@@H]1O [FBP] | – | – | – | neither TEPP-46 nor FBP treatment affected histone H3 methylation by CARM1 | – |
| – | RYRPRAPIIAVT [non-methyl-peptide] | inhibited proliferation of the MCF7 cells | abrogated CARM1-mediated methylation of PKM2 | inhibited proliferation of the MCF7 cells (FIG. 14E) and migration of MDA-MB-231 cells | – | – |
| blockage of PKM2 methylation by CARM1 | Cn1c2cc([S+](C)[O-])sc2c2cnn(Cc3cccc(N)c3)c(=O)c21 (centres unmarked) [TEPP-46] | – | – | – | neither TEPP-46 nor FBP treatment affected histone H3 methylation by CARM1 | OCR (MCF7 cells [9]): significantly increased OCR; methyl-PKM2 level in cells (methyl-PKM2): blocking its methylation; lactate production (MCF7 cells [10]): decreasing lactate production; OCR (MDA-MB-231 cells [11]): significantly increased OCR; lactate production (MDA-MB-231 cells [12]): decreasing lactate production; IP3R3 expression (IP3R3): elevated IP3R3 expression |
